A short description of series [1]: Microsomal metabolism test, rat liver microsomes. The settings on record: for Detection after incubation of BocMA (LC–QToF–MS): RLM incubation of BocMA; for Incubation time at which peak intensity was highest: RLM test; for Share of the degraded products detected as this metabolite: RLM, first 3 min. Background: Liver microsomes are vesicles of endoplasmic reticulum, rich in cytochrome P450 enzymes.

Series [2] is described as follows: Rat administration test, urinary excretion. The settings on record: for Detection in rat urine (LC–QToF–MS): urine 0–72 h, n = 3; for Detection in rat urine (LC–QToF–MS) / M1–D1 absolute amount in urine after hydrolysis / M1–D1 concentration in urine after hydrolysis / M1–D1 concentration in urine before hydrolysis / M1–D2 absolute amount in urine after hydrolysis / M1–D2 concentration in urine after hydrolysis / M1–D2 concentration in urine before hydrolysis: BocMA 20 mg/kg i.p.

A short description of series [3]: Microsomal metabolism test, human liver microsomes. Particulars: for Detection after incubation of BocMA (LC–QToF–MS): HLM incubation of BocMA; for Share of the degraded products detected as this metabolite: HLM, first 8 min.
The conditions of series [4]: within 3–4 days; cited from earlier work.

A value given as a limit tells only on which side of the number the result lay.

For the compound `C[C@H](NC(=O)OC(C)(C)CO)C(=O)c1ccccc1` [M5], in series [1], the “Detection after incubation of BocMA (LC–QToF–MS)” value (shortened to “Detection after incubation”) is “detected” and the “Incubation time at which peak intensity was highest” value (“Incubation time” for short) was found to be 60 min. Further, the “Urine collection interval with the highest ion peak intensity” value in series [2] (rat urine) is 4 to 8 h. For the same compound, in series [2] (rat urine, β-glucuronidase hydrolysis), the “Increase of peak intensity after hydrolysis” value was “approximately tenfold”. In series [2], the “Detection in rat urine (LC–QToF–MS)” value was “detected in urine from all rats”. Also, the “Detection after incubation” value in series [3] was “produced”.

In the case of `CN[C@@H](C)Cc1ccccc1` [MA, Methamphetamine], the “Share of the administered amount excreted in urine” value in series [4] is “about 80%”. For the same compound, the “Detection after incubation” value in series [1] and in series [3] was “not detected” throughout. In addition, the “Detection in rat urine (LC–QToF–MS)” value in series [2] is reported as “not detected”.

On to `CC(C(O)c1ccccc1)N(C)C(=O)OC(C)(C)C` (single isomer, unassigned) [M1–D1, N-tert-butoxycarbonylephedrine], for which the “Detection after incubation” value is given as “detected” in series [1] and “produced” in series [3]. Besides, the “Share of the degraded products detected as this metabolite” value (shortened to “Share of the degraded products detected”) in series [1] was found to be 5%; in series [3], 10%. Moreover, the “M1–D1 absolute amount in urine after hydrolysis” value (shortened to “M1–D1 absolute amount in urine”) in series [2] (rat no. 1, urine 0–4 h) turned out to be 0.69 ng; in series [2] (rat no. 1, urine 0–72 h total), 57 ng; in series [2] (rat no. 1, urine 4–8 h) it was 54 ng; in series [2] (rat no. 2, urine 0–4 h) it was 10 ng; in series [2] (rat no. 2, urine 0–72 h total), 260 ng; in series [2] (rat no. 2, urine 4–8 h) it was 180 ng. Also, the “M1–D1 absolute amount in urine” value in series [2] (rat no. 2, urine 8–24 h) turned out to be 72 ng; in series [2] (rat no. 3, urine 0–4 h) it was 70 ng; in series [2] (rat no. 3, urine 0–72 h total) it was 1500 ng; in series [2] (rat no. 3, urine 4–8 h) it was 440 ng; in series [2] (rat no. 3, urine 8–24 h) it was 860 ng; in series [2] (rat no. 3, urine 24–48 h), 88 ng. Moreover, the “M1–D1 absolute amount in urine” value in series [2] (rat no. 3, urine 48–72 h) stood at 6.4 ng. Further, the “M1–D1 concentration in urine after hydrolysis” value worked out at 0.46 ng/mL in series [2] (rat no. 1, urine 0–4 h); 54 ng/mL in series [2] (rat no. 1, urine 4–8 h); 5.2 ng/mL in series [2] (rat no. 2, urine 0–4 h); 89 ng/mL in series [2] (rat no. 2, urine 4–8 h); 4.8 ng/mL in series [2] (rat no. 2, urine 8–24 h); 140 ng/mL in series [2] (rat no. 3, urine 0–4 h). In addition, the “M1–D1 concentration in urine after hydrolysis” value stood at 220 ng/mL in series [2] (rat no. 3, urine 4–8 h); 86 ng/mL in series [2] (rat no. 3, urine 8–24 h); 11 ng/mL in series [2] (rat no. 3, urine 24–48 h); 0.71 ng/mL in series [2] (rat no. 3, urine 48–72 h). Further, the “M1–D1 concentration in urine before hydrolysis” value amounted to 0.47 ng/mL in series [2] (rat no. 1, urine 0–4 h); 0.51 ng/mL in series [2] (rat no. 1, urine 4–8 h); 6.5 ng/mL in series [2] (rat no. 2, urine 0–4 h); 3.0 ng/mL in series [2] (rat no. 2, urine 4–8 h); 3.0 ng/mL in series [2] (rat no. 2, urine 8–24 h); 50 ng/mL in series [2] (rat no. 3, urine 0–4 h). In series [2] (rat no. 3, urine 4–8 h), the “M1–D1 concentration in urine before hydrolysis” value is 3.2 ng/mL.

Take `CC(N)Cc1ccc(O)cc1` (centres unmarked) [4OHAP, 4-hydroxy amphetamine, reference compound]: the “Detection after incubation” value in series [1] and in series [3] was “not detected” in each case. Further, the “Detection in rat urine (LC–QToF–MS)” value in series [2] was “not detected”.

In the case of `CC(Cc1ccccc1)NC(=O)OC(C)(C)C` (centres unmarked) [M2, N-tert-butoxycarbonylamphetamine], the “Detection in rat urine (LC–QToF–MS)” value in series [2] is reported as “not detected”. The “Detection after incubation” value in series [3] is on record as “produced”.

For the compound `C[C@@H](Cc1ccc(O)cc1)N(C)C(=O)OC(C)(C)C` [M3, N-tert-butoxycarbonyl-4-hydroxymethamphetamine], the “Detection in rat urine (LC–QToF–MS)” value in series [2] is recorded as “trace amount of M3 was detected only in the urine collected during 0–4 h from Rat No. 3”. For the same compound, the “Detection after incubation” value in series [3] is “produced”.

In the case of `CC(N)Cc1ccccc1` (centres unmarked) [AP, amphetamine], in series [1], the “Detection after incubation” value is “not detected”. The “Detection in rat urine (LC–QToF–MS)” value in series [2] is listed as “not detected”.

Consider `CC(C(=O)c1ccccc1)N(C)C(=O)OC(C)(C)C` (centres unmarked) [BocMC, N-tert-butoxycarbonyl-2-(methylamino)-1-phenylpropan-1-one, reference compound], for which the “Detection after incubation” value in series [1] and in series [3] was “not detected” throughout.

In the case of `CC(NC(=O)OC(C)(C)C)C(=O)c1ccccc1` (centres unmarked) [M4, N-tert-butoxycarbonyl-2-amino-1-phenylpropan-1-one], in series [1], the “Detection after incubation” value is “detected” and the “Incubation time” value stood at 20 min. Also, the “Detection in rat urine (LC–QToF–MS)” value in series [2] was “not detected”. Besides, the “Detection after incubation” value in series [3] is reported as “produced”.

Turning to `CNC(C)Cc1ccc(O)cc1` (centres unmarked) [4OHMA, 4-hydroxy methamphetamine, reference compound], the “Detection after incubation” value in series [1] and in series [3] was “not detected” each time. The “Detection in rat urine (LC–QToF–MS)” value in series [2] is given as “not detected”.

As to `CC(NC(=O)OC(C)(C)COC1OC(C(=O)O)C(O)C(O)C1O)C(=O)c1ccccc1` (centres unmarked) [M9], in series [2] (rat urine), the “Urine collection interval with the highest ion peak intensity” value lay in the range of 4 to 8 h. Besides, the “Detection in rat urine (LC–QToF–MS)” value in series [2] was “detected in all rat urine collected until 72 h”.

Regarding `CC1N(C)C(O)(OC(C)(C)C)OC1(O)c1ccccc1` (centres unmarked) [M6], in series [1], the “Detection after incubation” value is given as “detected” and the “Incubation time” value amounted to 13 min. For the same compound, the “Detection in rat urine (LC–QToF–MS)” value in series [2] was “not detected”. The “Detection after incubation” value in series [3] is “produced”.

As to `CC(NC(=O)OC(C)(C)C)C(O)c1ccccc1` (centres unmarked) [Boc-protected nor-ephedrine], the “Detection after incubation” value in series [1] and in series [3] was “not detected” throughout.

In the case of `CC(C(O)c1ccccc1)N(C)C(=O)OC(C)(C)C` (single isomer, unassigned) [M1–D2, N-tert-butoxycarbonylpseudoephedrine], the “Detection after incubation” value in series [1] is given as “detected”; in series [3] it was “produced”. Further, the “Share of the degraded products detected” value in series [1] was determined as 40%; in series [3], 4%. In addition, the “M1–D2 absolute amount in urine after hydrolysis” value came to 85 ng in series [2] (average of 3 rats, urine 0–72 h total); 7.8 ng in series [2] (rat no. 1, urine 0–4 h); 43 ng in series [2] (rat no. 1, urine 0–72 h total); 35 ng in series [2] (rat no. 1, urine 4–8 h); 24 ng in series [2] (rat no. 2, urine 0–4 h); 52 ng in series [2] (rat no. 2, urine 0–72 h total). Moreover, the “M1–D2 absolute amount in urine after hydrolysis” value in series [2] (rat no. 2, urine 4–8 h) was determined as 28 ng; in series [2] (rat no. 3, urine 0–4 h), 50 ng; in series [2] (rat no. 3, urine 0–72 h total), 160 ng; in series [2] (rat no. 3, urine 4–8 h) it was 66 ng; in series [2] (rat no. 3, urine 8–24 h), 42 ng. The “M1–D2 concentration in urine after hydrolysis” value in series [2] (rat no. 1, urine 0–4 h) amounted to 5.2 ng/mL; in series [2] (rat no. 1, urine 4–8 h), 35 ng/mL; in series [2] (rat no. 2, urine 0–4 h), 12 ng/mL; in series [2] (rat no. 2, urine 4–8 h), 14 ng/mL; in series [2] (rat no. 3, urine 0–4 h), 100 ng/mL; in series [2] (rat no. 3, urine 4–8 h), 33 ng/mL. In addition, the “M1–D2 concentration in urine after hydrolysis” value in series [2] (rat no. 3, urine 8–24 h) was 4.2 ng/mL. Besides, the “M1–D2 concentration in urine before hydrolysis” value in series [2] (rat no. 1, urine 0–4 h) was 1.5 ng/mL; in series [2] (rat no. 1, urine 4–8 h), 0.67 ng/mL; in series [2] (rat no. 2, urine 0–4 h) it was 12 ng/mL; in series [2] (rat no. 2, urine 4–8 h), 1.0 ng/mL; in series [2] (rat no. 3, urine 0–4 h), 8.1 ng/mL; in series [2] (rat no. 3, urine 4–8 h), 1.5 ng/mL.

Consider `CC(C(O)c1ccccc1)N(C)C(=O)OC(C)(C)C` (centres unmarked) [M1], for which, in series [1], the “Incubation time” value turned out to be 3 min. In addition, the “Share of the degraded products detected” value in series [1] is 45%; in series [1] (listed as M1 (D1, 2)) it was approximately 45%; in series [3], 14%. Further, the “M1 diastereomer ratio (R = M1–D1/M1–D2)” value in series [2] (in vivo, rat urine) was not below 1. For the same compound, in series [2], the “Detection in rat urine (LC–QToF–MS)” value was “detected in urine from all rats”.

Source of the values: article PMC9715518, “Human and rat microsomal metabolites of N-tert-butoxycarbonylmethamphetamine and its urinary metabolites in rat” (Forensic Toxicology, 2021).
